What was measured:
rat brain (BBB) [1] = experiment: Evans Blue accumulation in rat brain after alternating electric fields; assay type: in vivo
Source text: A set of in vivo experiments on rats was also run to quantify the increase in vessel permeability caused by exposure to the alternating electric fields. These experiments used Evans Blue (EB) dye, which is an azo dye that has a very high affinity for serum albumin (molecule size ˜69 kDa). Because of its large molecule size, serum albumin will ordinarily not be able to get past the BBB.
This was accomplished by shaving each rat's head, positioning a first pair of capacitively coupled electrodes on the top and bottom of the rat's head, and positioning a second pair of capacitively coupled electrodes on the left and right sides of the rat's head. A 100 kHz AC voltage was then applied between the top and bottom electrodes for 1 second, followed by a 100 kHz AC voltage applied between the right and left electrodes for 1 second, in a repeating sequence.
Under the conditions indicated in Table 1 and for the times indicated on Table 1, EB was injected intravenously into the tail vein under anesthesia (Once injected, EB immediately binds to Albumin), and the EB was allowed to circulate for 2 hours in all cases. The following steps were then performed: (a) intracardiac perfusion with saline; (b) brains are sliced in four pieces with a brain slicer; (c) pieces were photographed to localize staining and weighted; (d) EB extraction after tissue homogenization with TCA 50% (1:3) and centrifuge and (e) EB quantification at 610 nm. Results are given as μg EB per g tissue.
During the experiment, two animals from group 2 and one animal from group 4 were excluded (disrupted treatment, failure to inject EB into the tail vein). There were no differences between the animals treated with alternating electric fields (groups 1 and 2) and therefore these animals were grouped together. Similarly, there were no differences between sham heat and control animals (groups 3 and 4) and therefore these animals were grouped together.
EB accumulation in these four specific sections was then measured. In addition, a computer simulation was performed to determine the field strength in each of these four sections. […]

rat brain (BBB) [2] = experiment: DCE-MRI contrast agent accumulation in rat brain; assay type: in vivo
Method: Yet another set of in vivo experiments was performed using Dynamic Contrast Enhanced MRI (DCE-MRI) with intravenous injection of Gadolinium contrast agent (Gd-DTPA, Magnetol, MW 547). In these experiments, test rats were treated with 100 kHz alternating electric fields for 72 h, and control rats were not treated with alternating electric fields for the same period of time. After this 72 h period, the alternating electric field was turned off, the rats were anesthetized, and a series of 60 T1w MRI scans (each of the scans having a duration of 28 seconds) was acquired. The gadolinium contrast agent was injected into the rat's tail vein during the 7th of these 60 scans.
The image analysis for each rat included (1) determining a baseline for each voxel by calculating the mean of the first six T1w MRI scans for each voxel (i.e., the scans prior to the injection of the gadolinium); (2) computing voxel by voxel, the percent signal change (i.e., gadolinium accumulation) over time relative to the baseline; (3) segmenting the brain into anterior, middle, and posterior segments; (4) generating for each of the three segments the mean percent signal change with respect to the baseline over all the voxels in the respective segment and then (5) averaging 4 consecutive time points (i.e. 4 scans) together. Finally, the data from all of the rats within any given group were averaged together. […]

[3] = 100 kHz fields 72 h vs sham heat/control, EB i.v., circulated 2 hours, measured as μg EB per g tissue, FIG. 5

average EB accumulation in the rat brain, averaged over all four sections 1-4 (rat brain (BBB) [1]; 100 kHz fields 72 hours vs sham heat/control, p<0.05, FIG. 6)	EB accumulation, sections 1, 2 (frontal cerebrum) (rat brain (BBB) [1]; [3])	Compound	EB accumulation, more posterior sections (3, 4) (rat brain (BBB) [1]; [3])	contrast agent accumulation in the brain tissue (percent signal change) (rat brain (BBB) [2]; 100 kHz fields 72 h (n=6) vs control rats (n=3), i.v., FIG. 7)	contrast agent accumulation in the brain tissue (percent signal change) after recovery (rat brain (BBB) [2]; 72 hours fields followed by 96 hours without fields (n=7) vs control+96 h (n=3))
higher accumulation	statistically significant increase	Cc1cc(-c2ccc(/N=N/c3ccc4c(S(=O)(=O)O)cc(S(=O)(=O)O)c(N)c4c3O)c(C)c2)ccc1/N=N/c1ccc2c(S(=O)(=O)O)cc(S(=O)(=O)O)c(N)c2c1O [EB, Evans Blue]	smaller increase (that was not statistically significant)	–	–
–	–	O=C([O-])CN(CCN(CC(=O)[O-])CC(=O)O)CCN(CC(=O)[O-])CC(=O)O.[Gd+3] [contrast agent, Gd-DTPA]	–	significantly higher	not significantly different

Reference: US11400269B2, “Using alternating electric fields to increase permeability of the blood brain barrier” (Novocure GmbH, priority 2018, dated 2022)
